Laboratory results: ChEMBL document CHEMBL1201862, “PubChem BioAssay data set” (2004)
The source made the active and inactive calls.

How the values were obtained:
[1] = molecular target: Paired box protein Pax-8 (Homo sapiens, UniProt Q06710); assay: PAX8 transcriptional activity inhibition in RMG-I – RMG-I cells, luciferase, cherry-pick, dose response (AID 687027); format: functional, cell-based;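 also: luciferase reporter driven by Pax8 target thyroperoxidase promoter measured by SteadyGlo luminescence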
Sequence of Paired box protein Pax-8 (Q06710 whole entry): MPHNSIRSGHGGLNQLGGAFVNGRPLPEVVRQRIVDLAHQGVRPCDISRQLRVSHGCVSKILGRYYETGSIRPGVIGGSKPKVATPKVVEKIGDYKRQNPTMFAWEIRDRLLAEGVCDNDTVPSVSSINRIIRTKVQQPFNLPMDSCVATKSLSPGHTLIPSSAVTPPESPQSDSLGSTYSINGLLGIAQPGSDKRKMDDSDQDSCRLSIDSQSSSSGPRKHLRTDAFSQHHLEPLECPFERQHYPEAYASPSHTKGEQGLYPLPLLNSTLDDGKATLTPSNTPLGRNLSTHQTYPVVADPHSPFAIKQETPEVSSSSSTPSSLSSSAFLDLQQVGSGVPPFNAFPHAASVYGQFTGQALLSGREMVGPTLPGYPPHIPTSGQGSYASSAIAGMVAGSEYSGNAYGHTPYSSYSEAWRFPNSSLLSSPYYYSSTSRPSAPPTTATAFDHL

[2] = OVCAR-3 cell viability loss – plate reader, dry powder samples, PAX8 inhibitor project, dose response (AID 743044); format: functional, cell-based
[3] = IGROV1 cell killing – plate reader, dry powder samples, PAX8 inhibitor project, dose response (AID 743043); format: functional, cell-based; settings: IGROV-1
[4] = OVCAR8 cell viability loss – plate reader, dry powder samples, PAX8 project, dose response (AID 743197); format: functional, cell-based; settings: OVCAR-8
[5] = CCR5-tropic HIV-1 fusion blockers – cell-based, CCR5-tropic Env, dose response (AID 2279); format: functional
[6] = system: Vero; assay: viability of Vero cells under compound – cytotoxicity control for flavivirus capping enzyme inhibitors (AID 588742); format: functional; settings: Chlorocebus sabaeus
[7] = molecular target: Genome polyprotein (dengue virus type 2, UniProt P29990); assay: flavivirus cap methylation enzyme inhibition – biochemical, confirmation dose response, primary screen (AID 588689); format: functional
[8] = molecular target: T1, Long-chain-fatty-acid--AMP ligase FadD28 (Mycobacterium tuberculosis, UniProt P9WQ59); assay: Fluorescence polarization aasay to screen for inhibitors that compete for the binding of FadD28 to a bisubstrate Measured in Biochemical System Using Plate Reader - 2147-01_Inhibitor_Dose_CherryPick_Activity.; format: functional, Mycobacterium tuberculosis H37Rv
T1 sequence (P9WQ59 whole entry): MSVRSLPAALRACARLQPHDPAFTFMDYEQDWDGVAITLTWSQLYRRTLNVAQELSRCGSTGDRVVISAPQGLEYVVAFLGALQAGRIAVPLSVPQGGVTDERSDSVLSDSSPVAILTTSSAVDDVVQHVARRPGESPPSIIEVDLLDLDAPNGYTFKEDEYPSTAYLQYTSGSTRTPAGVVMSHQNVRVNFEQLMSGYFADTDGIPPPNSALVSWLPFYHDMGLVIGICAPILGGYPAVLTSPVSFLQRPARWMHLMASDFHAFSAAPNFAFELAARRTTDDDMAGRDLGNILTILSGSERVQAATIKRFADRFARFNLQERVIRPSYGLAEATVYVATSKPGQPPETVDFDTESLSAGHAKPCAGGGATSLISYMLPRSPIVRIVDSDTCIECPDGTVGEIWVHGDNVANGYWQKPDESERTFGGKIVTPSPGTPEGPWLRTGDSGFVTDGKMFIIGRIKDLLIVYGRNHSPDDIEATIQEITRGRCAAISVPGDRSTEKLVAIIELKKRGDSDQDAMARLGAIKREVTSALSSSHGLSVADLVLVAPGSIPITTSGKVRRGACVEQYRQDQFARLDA

[9] = inhibition of ARNT PAS-B/TACC3 complex formation – biochemical, AlphaScreen, cherry-picked samples, confirmation (AID 651703); format: functional, Homo sapiens;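 also: His-tagged ARNT PAS-B domain paired with GST-TACC3 E629A dimer coactivator fragment; potency of inhibitors that break up the complex and lower AlphaScreen signal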
[10] = molecular target: T2, Tyrosine-protein phosphatase non-receptor type 7 (Homo sapiens, UniProt P35236); assay: HePTP tyrosine phosphatase activity blockers – biochemical, absorbance, leukemia target, primary screen (AID 521); format: functional
T2 sequence (P35236 whole entry): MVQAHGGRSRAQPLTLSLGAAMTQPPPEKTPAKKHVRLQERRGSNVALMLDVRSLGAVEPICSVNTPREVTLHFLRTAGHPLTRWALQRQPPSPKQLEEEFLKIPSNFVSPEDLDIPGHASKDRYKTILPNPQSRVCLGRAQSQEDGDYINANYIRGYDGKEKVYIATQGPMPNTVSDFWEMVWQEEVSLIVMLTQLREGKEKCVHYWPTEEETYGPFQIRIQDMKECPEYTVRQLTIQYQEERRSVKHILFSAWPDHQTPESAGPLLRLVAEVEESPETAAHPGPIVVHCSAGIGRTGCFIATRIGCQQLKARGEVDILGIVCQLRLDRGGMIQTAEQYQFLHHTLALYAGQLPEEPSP

[11] = reduced cellular PGC1a acetyl-lysine signal – cell-based, cherry-picked samples, dose response (AID 720514); format: functional;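 also: potency may reflect raised or lowered acetylation signal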
[12] = Dd2 parasite growth inhibition in erythrocytes – SYBR Green, dry powder samples, set 9, dose response (AID 1159568); format: functional, cell-based
[13] = IC50 of insulin release inhibition, rat insulinoma INS-1E line, 5 mM glucose, cell-based (AID 1117331); format: functional
[14] = cytotoxicity in MITF-independent A375 cells – cell-based, CellTiter-Glo luminescence, dry powder, set 4, counter-screen for MITF inhibitor project, dose response (AID 624364); format: functional; settings: A-375;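 also: A375 melanoma cells are MITF independent so this is a counter screen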
[15] = viability loss in MITF-independent A375 cells – cell-based, CellTiter-Glo luminescence, dry powder, set 2, counter-screen for MITF inhibitor project, dose response (AID 624489); format: functional; settings: A-375;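 also: actives are compounds lowering A375 viability meaning general cytotoxicity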
[16] = molecular target: T3, Genome polyprotein (Hepatitis C virus, UniProt Q2Q167); assay: disruption of hepatitis C core self-association – biochemical, TR-FRET, dose response (AID 2159); parameters: species or system Hepacivirus hominis;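 also: blocks dimerization of HCV core protein measured by TR-FRET between tagged core106 pairs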
T3 sequence (Q2Q167 whole entry): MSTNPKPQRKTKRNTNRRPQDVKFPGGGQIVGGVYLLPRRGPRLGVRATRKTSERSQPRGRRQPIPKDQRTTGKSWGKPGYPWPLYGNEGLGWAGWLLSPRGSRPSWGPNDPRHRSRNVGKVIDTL

[17] = molecular target: T4, Induced myeloid leukemia cell differentiation protein Mcl-1 (Homo sapiens, UniProt Q07820); assay: blockers of MCL1 binding to BIM peptide – biochemical, fluorescence polarization, BIM-BH3 peptide, 1536-well, dose response (AID 2217)
T4 sequence (Q07820 whole entry): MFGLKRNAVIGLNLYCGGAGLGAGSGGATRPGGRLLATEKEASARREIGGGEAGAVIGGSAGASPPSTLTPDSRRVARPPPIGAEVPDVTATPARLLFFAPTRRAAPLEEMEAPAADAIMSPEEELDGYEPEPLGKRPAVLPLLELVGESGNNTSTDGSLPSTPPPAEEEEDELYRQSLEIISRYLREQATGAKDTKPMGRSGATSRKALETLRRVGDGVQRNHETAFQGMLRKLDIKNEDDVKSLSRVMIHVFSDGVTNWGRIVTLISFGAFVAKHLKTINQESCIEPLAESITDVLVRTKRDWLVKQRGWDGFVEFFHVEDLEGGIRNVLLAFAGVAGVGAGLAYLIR

[18] = molecular target: Bcl-2-like protein 1 (Homo sapiens, UniProt Q07817); assay: blockers of BCLXL peptide binding – biochemical, fluorescence polarization, 1536-well, selectivity assay for MCL1 inhibitor project, dose response (AID 2218)
[19] = molecular target: T4, Induced myeloid leukemia cell differentiation protein Mcl-1; format: functional
[20] = molecular target: Eukaryotic translation initiation factor 4E (Mus musculus, UniProt P63073); assay: blockers of eIF4G binding by eIF4E – biochemical, TR-FRET, dose response (AID 855); format: functional;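 also: potency for disrupting eIF4E binding to eIF4GI seen as loss of FRET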
Sequence of Eukaryotic translation initiation factor 4E (P63073 whole entry): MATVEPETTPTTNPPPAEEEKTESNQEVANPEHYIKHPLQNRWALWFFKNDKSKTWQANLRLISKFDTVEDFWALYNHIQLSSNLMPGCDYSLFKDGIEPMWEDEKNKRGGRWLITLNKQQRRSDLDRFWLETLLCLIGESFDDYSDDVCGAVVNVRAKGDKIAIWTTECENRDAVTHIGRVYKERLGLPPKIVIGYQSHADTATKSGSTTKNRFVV

[21] = molecular target: fMet-Leu-Phe receptor (Homo sapiens, UniProt P21462); assay: formyl peptide receptor binders – dose response (AID 519); format: functional
[22] = molecular target: T5, DNA repair protein RAD52 homolog (Homo sapiens, UniProt P43351); format: functional, biochemical
T5 sequence (P43351 whole entry): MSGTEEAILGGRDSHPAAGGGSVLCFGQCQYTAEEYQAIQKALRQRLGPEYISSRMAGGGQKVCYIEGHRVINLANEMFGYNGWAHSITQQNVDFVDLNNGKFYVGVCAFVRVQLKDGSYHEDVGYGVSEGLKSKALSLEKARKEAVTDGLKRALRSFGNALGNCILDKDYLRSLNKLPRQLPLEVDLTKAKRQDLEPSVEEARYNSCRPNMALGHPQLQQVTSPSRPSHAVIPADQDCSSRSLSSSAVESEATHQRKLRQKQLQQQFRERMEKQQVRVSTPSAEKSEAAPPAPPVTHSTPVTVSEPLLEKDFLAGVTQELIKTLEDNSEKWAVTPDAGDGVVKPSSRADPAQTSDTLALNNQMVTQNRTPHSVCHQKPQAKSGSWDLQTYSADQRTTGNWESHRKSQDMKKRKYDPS

[23] = viability loss in THP-1 monocytes – THP-1 cells, cytotoxicity control for Vif-APOBEC3G degradation inhibitor project, dose response (AID 1117359); format: functional; settings: THP-1
[24] = system: HEK293; assay: EBV LMP1 TES2 canonical NF-kB signalling blockers – cell-based, HEK293, luciferase, cherry-pick, dose response (AID 588343); format: functional; settings: Homo sapiens
[25] = reduction of Shn3 3'UTR-driven luciferase in osteoblasts – cell-based, Clone20 osteoblasts, firefly luciferase, cherry-picked, dose response (AID 624132); format: functional;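 also: firefly luciferase luminescence from reporter carrying the Shn3 3'UTR in osteoblasts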
[26] = loss of viability in HepG2 cells – cell-based, CellTiter-Glo, cherry-picked, cytotoxicity control for Shn3 inhibitor project, dose response (AID 624134); format: functional
[27] = non-specific 3'UTR reporter inhibition in Clone20-Shn3RL – cell-based, Renilla luciferase, cherry-picked, counter-screen for Shn3 inhibitor project, dose response (AID 624133); format: functional
[28] = activation of miR-122 Renilla sensor silencing – cell-based, Huh7 psiCHECK-miR122, Renilla luciferase, cherry-picked, dose response (AID 651956); format: functional;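 also: huh7 hepatoma cells stably carrying a psiCHECK-2 miR-122 sensor plasmid; renilla luciferase signal reporting endogenous miR-122 activity after 48 h compound exposure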
[29] = general mammalian cell viability loss – inhibitor set, cherry-pick, set 2, cytotoxicity control for miR-122 modulator project, dose response (AID 720697); format: functional, cell-based
[30] = general mammalian cell viability loss – activator set, cherry-pick, cytotoxicity control for miR-122 modulator project, dose response (AID 720690); format: functional, cell-based;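 also: HEK293T human cells scored for general mammalian cytotoxicity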
[31] = MITF Orthogonal Assay: SK-MEL-5 CTG Assay Measured in Cell-Based System Using Plate Reader - 2084-02_Inhibitor_Dose_DryPowder_Activity_Set7.; format: functional
[32] = MITF: Counter assay: A375 proliferation Measured in Cell-Based System Using Plate Reader - 2084-03_Inhibitor_Dose_DryPowder_Activity_Set8.; format: functional; settings: A-375
[33] = inhibitors of TRPM1-promoter reporter in SK-MEL-5 – cell-based, luciferase, dry powder, set 8, MITF inhibitor project, dose response (AID 624430); format: functional
[34] = molecular target: Peroxisome proliferator-activated receptor gamma/Nuclear receptor coactivator 2 (Homo sapiens, UniProt P37231); format: functional;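 also: agonist potency for raising coactivator recruitment to the receptor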
Sequence of Peroxisome proliferator-activated receptor gamma/Nuclear receptor coactivator 2 (P37231 whole entry): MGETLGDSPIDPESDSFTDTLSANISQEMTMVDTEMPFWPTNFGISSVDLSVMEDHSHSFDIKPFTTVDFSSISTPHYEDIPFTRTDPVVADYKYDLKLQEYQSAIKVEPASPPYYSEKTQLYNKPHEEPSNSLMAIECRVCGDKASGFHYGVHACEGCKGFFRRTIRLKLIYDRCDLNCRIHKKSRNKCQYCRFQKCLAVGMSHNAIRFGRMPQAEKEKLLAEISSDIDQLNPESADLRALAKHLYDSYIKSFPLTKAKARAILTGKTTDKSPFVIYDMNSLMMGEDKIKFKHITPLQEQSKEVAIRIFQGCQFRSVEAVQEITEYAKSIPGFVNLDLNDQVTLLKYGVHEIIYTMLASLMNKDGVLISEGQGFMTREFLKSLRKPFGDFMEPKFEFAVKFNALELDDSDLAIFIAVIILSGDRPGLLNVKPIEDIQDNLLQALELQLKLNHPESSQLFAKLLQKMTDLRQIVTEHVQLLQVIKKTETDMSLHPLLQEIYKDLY
Sequence of Peroxisome proliferator-activated receptor gamma/Nuclear receptor coactivator 2 (Q15596 whole entry, further chain): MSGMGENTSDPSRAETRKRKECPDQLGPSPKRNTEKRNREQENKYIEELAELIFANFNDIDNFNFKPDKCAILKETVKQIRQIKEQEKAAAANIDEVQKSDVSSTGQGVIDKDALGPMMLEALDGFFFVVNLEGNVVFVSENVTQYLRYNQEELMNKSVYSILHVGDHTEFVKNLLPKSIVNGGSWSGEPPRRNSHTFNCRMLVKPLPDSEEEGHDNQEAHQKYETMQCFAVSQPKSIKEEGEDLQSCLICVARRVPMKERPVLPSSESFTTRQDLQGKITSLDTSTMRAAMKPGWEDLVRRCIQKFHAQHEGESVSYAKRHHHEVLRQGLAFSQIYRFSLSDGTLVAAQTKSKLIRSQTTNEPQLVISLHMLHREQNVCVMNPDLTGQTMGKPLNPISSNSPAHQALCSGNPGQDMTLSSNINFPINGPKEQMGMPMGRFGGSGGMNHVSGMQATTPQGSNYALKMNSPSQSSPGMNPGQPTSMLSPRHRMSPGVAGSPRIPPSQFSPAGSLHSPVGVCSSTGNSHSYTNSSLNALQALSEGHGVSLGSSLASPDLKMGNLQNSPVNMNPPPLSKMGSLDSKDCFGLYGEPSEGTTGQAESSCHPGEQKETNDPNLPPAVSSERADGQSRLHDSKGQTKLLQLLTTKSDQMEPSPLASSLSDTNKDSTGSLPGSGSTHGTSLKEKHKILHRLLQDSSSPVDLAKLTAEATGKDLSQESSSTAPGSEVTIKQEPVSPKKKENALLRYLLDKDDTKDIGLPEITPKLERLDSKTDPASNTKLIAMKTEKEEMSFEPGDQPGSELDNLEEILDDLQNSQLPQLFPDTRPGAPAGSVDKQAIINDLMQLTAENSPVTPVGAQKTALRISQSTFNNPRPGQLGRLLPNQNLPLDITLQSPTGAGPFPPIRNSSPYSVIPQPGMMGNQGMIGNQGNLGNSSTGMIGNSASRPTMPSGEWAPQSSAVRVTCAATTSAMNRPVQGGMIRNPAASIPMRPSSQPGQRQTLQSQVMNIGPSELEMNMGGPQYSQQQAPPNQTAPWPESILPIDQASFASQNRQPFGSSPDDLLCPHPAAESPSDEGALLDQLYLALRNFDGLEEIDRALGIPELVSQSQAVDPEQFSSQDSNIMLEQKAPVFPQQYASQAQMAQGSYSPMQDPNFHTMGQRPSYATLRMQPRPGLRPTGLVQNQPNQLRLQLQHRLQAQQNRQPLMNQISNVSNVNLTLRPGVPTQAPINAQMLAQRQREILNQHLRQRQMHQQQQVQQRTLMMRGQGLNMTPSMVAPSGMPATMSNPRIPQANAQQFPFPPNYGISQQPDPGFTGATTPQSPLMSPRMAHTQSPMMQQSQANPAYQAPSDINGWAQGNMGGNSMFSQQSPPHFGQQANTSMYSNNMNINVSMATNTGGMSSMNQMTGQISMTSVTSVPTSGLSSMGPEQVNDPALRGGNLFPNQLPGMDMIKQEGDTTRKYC

[35] = molecular target: Peroxisome proliferator-activated receptor gamma/Nuclear receptor coactivator 1 (Homo sapiens, UniProt P37231); format: functional;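 also: agonist potency as compounds enhance coactivator SRC-1 recruitment to PPARgamma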
Sequence of Peroxisome proliferator-activated receptor gamma/Nuclear receptor coactivator 1 (P37231 whole entry): as the sequence (P37231 whole entry) above
Sequence of Peroxisome proliferator-activated receptor gamma/Nuclear receptor coactivator 1 (Q15788 whole entry, further chain): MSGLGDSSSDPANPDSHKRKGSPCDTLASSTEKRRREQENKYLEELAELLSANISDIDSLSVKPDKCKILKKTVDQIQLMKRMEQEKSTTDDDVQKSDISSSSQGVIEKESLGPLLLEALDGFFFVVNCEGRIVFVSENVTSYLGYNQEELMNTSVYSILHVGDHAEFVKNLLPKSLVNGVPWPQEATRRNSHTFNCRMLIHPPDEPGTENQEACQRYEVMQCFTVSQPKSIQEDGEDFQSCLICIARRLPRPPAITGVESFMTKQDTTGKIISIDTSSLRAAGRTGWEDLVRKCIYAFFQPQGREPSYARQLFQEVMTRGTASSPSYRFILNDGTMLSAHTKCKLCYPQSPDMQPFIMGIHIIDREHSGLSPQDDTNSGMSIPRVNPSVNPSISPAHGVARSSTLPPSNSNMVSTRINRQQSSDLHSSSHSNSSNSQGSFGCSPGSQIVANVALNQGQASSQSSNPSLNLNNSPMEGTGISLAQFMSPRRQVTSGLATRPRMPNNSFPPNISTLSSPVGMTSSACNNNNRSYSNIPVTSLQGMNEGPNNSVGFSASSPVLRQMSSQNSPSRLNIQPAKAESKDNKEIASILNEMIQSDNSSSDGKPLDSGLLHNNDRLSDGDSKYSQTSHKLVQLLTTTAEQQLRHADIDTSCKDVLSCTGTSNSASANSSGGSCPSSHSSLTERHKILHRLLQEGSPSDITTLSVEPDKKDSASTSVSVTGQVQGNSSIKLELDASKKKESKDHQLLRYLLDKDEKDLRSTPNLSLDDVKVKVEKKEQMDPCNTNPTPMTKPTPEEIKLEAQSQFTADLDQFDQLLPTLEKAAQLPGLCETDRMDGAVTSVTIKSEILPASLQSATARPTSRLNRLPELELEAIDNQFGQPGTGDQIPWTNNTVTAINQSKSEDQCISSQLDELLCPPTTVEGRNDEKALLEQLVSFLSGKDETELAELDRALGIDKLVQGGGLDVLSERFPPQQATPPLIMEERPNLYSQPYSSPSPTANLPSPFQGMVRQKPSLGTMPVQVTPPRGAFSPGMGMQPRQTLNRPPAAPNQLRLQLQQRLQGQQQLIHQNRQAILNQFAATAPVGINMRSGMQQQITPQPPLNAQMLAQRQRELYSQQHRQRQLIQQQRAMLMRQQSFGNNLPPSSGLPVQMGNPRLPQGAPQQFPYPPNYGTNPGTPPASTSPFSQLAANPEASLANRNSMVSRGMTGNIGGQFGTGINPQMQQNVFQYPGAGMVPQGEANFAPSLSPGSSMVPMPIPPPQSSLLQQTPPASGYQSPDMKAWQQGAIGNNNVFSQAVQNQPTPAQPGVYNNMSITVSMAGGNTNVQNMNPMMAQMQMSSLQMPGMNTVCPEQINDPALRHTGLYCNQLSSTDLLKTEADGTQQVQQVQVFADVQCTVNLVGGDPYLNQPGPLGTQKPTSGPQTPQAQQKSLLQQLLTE

[36] = molecular target: Peroxisome proliferator-activated receptor gamma/Nuclear receptor coactivator 3 (Homo sapiens, UniProt P37231); format: functional;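 also: agonist potency for raising coactivator recruitment to the receptor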

C[C@@H]1CN([C@@H](C)CO)C(=O)c2cc(NC(=O)Nc3ccc(C(F)(F)F)cc3)ccc2O[C@@H](C)CCCCO[C@H]1CN(C)Cc1ccc2c(c1)OCO2
AC50 [1]: 14.3 µM (active) | AC50 [2]: 9.82 µM (active) | AC50 [3]: 29 µM (active) | AC50 [4]: 24 µM (active)

CC(C(=O)Nc1ccc(O)c(C(=O)O)c1)N1C(=O)/C(=C/c2cccs2)SC1=S (stereo not drawn)
IC50 [5]: > 50 µM (active) | CC50 [6]: > 40 µM (active) | IC50 [7]: 41.1 µM (active) | AC50 [8]: > 100 µM (inactive) | AC50 [9]: 132 µM (active)

C=CCSc1nsc(N)n1
IC50 [10]: > 100 µM (not active)

C[C@H](CO)N1C[C@H](C)[C@H](CN(C)C(=O)NC2CCCCC2)Oc2cc(C#Cc3ccc(F)cc3)ccc2S1(=O)=O
AC50 [1]: 7.83 µM (active) | AC50 [11]: 12.8 µM (active)

N#C[C@@H]1[C@H](c2ccccc2C2=CCCCC2)[C@H](CO)N1S(=O)(=O)c1ccccc1
AC50 [12]: 13.1 µM (active)

CC(C(O)c1ccccc1)N(C)CCOC(c1ccccc1)c1ccccc1 (stereo not drawn) [DIFETEROL]
IC50 [13]: > 33.3 µM (inactive)

O=C(NC1=C(N2CCOCC2)C(=O)c2ccccc2C1=O)c1ccccc1
AC50 [14]: 34.6 µM (active) | AC50 [15]: 31.9 µM (active)

COc1ccc(Cc2nnc(NC(=O)Cc3cccs3)s2)cc1OC
IC50 [16]: > 49.8 µM (not active) | IC50 [17]: 5.14 µM (active) | IC50 [18]: > 109 µM (not active) | IC50 [19]: 1.97 µM (active) | IC50 [20]: 19.1 µM (active)

O=C(C1=C(O)C(=O)N(CCOCCO)C1c1cccs1)c1cccs1 (stereo not drawn)
Ki [21]: 21.4 µM (inactive)

CC1=CC(C)(C)N=C(Nc2nc(C)c3cc(C)cc(C)c3n2)N1
AC50 [22]: 5.16 µM (active) | CC50 [23]: 37.6 µM (active)

CCN1CCN(Cc2ccc(NC(=O)c3ccc(C)c(NC(=O)c4cnc5cc(C(F)(F)F)ccc5c4O)c3)cc2C(F)(F)F)CC1
AC50 [24]: 2.74 µM (active) | AC50 [25]: 3.13 µM (active) | AC50 [26]: 5.71 µM (active) | AC50 [27]: 6.23 µM (active) | AC50 [28]: 5.11 µM (active) | AC50 [11]: 5.48 µM (active) | AC50 [29]: 4.86 µM (active) | AC50 [30]: 4.48 µM (active)

O=C1C(Nc2ccc(Cl)c(Cl)c2)=C(N2CCCC2)C(=O)c2ccccc21
AC50 [31]: 29.2 µM (active) | AC50 [32]: > 70 µM (inactive) | AC50 [33]: 8.91 µM (active)

O=C1C(Nc2ccc(F)cc2F)=C(N2CCCC2)C(=O)c2ccccc21
AC50 [31]: 2.35 µM (active) | AC50 [32]: 8.05 µM (active) | AC50 [33]: 0.677 µM (active)

O=C(NC1=C(N2CCSCC2)C(=O)c2ccccc2C1=O)c1ccccc1
AC50 [14]: 40.7 µM (active) | AC50 [15]: 26.9 µM (active)

O=C(NCc1nnc(S)n1-c1ccc(Br)cc1)c1ccc(S(=O)(=O)N2CCOCC2)cc1
EC50 [34]: > 79.4 µM (not active) | EC50 [35]: > 79.4 µM (not active) | EC50 [36]: > 79.4 µM (not active)

O=C(NCCCN1CCCC1=O)c1ccc(Cl)c(NS(=O)(=O)c2ccc(F)cc2)c1
IC50 [10]: > 100 µM (not active)

COCCN1C(=O)/C(=C/c2ccc(OCc3ccc(C(=O)O)cc3)c(OC)c2)S/C1=N\c1ccccc1
IC50 [5]: 40.2 µM (active)

O=C(N/N=C/c1cnc(N2CCCCC2)s1)c1ccc(Cl)cc1
EC50 [34]: > 79.4 µM (not active) | EC50 [35]: > 79.4 µM (not active) | EC50 [36]: > 79.4 µM (not active)
